Reference: ChEMBL document CHEMBL1201862, “PubChem BioAssay data set” (2004)
Each block holds one compound with its values, some of them ahead of it. Calls of active or inactive are those of the source.

Assays:
[1] = target: Metabotropic glutamate receptor 4 (Rattus norvegicus, UniProt P31423); assay: Modulation of the Metabotropic Glutamate Receptor mGluR4: Rat PAM Potency. [Related pubchem assays (depositor defined):AID2437, AID2807]; type: functional
[2] = target: Metabotropic glutamate receptor 4 (Homo sapiens, UniProt Q14833); assay: Modulation of the Metabotropic Glutamate Receptor mGluR4: Potency at human mGluR4. Modulation of intracellular Ca2+ using Fluo-4, AM, in CHO expressing recombinant receptor [Related pubchem assays (depositor defined):AID2437, AID2807]; type: functional, cell-based
Caspase-3 = target: T1, Caspase-3 (Homo sapiens, UniProt P42574); assay: procaspase-3 activation potency of dual hits, dose response, counter-screen for dual procaspase-3/7 activator project, biochemical, absorbance, PC-3 D3A mutant (AID 504328)
T1 sequence (P42574 whole entry): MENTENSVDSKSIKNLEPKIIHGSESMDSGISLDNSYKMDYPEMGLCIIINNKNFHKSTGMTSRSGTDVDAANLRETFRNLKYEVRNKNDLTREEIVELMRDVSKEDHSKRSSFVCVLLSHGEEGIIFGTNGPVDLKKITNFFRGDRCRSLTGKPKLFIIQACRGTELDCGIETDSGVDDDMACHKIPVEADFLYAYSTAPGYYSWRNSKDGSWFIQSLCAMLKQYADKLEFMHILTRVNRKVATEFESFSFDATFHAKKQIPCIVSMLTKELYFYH

Caspase-7 = Caspase-7 (Homo sapiens, UniProt P55210); assay: procaspase-7 activators, dose response, dual procaspase-3/-7 activator project, biochemical, absorbance, human (AID 504330)
[3] = target: T2, Microphthalmia-associated transcription factor (Homo sapiens, UniProt O75030); assay: TRPM1 promoter luciferase signal decrease, dose response, MITF inhibitor project, cell-based, SK-MEL-5, cherry-picked, set 3 (AID 493073); type: functional
T2 sequence (O75030 whole entry): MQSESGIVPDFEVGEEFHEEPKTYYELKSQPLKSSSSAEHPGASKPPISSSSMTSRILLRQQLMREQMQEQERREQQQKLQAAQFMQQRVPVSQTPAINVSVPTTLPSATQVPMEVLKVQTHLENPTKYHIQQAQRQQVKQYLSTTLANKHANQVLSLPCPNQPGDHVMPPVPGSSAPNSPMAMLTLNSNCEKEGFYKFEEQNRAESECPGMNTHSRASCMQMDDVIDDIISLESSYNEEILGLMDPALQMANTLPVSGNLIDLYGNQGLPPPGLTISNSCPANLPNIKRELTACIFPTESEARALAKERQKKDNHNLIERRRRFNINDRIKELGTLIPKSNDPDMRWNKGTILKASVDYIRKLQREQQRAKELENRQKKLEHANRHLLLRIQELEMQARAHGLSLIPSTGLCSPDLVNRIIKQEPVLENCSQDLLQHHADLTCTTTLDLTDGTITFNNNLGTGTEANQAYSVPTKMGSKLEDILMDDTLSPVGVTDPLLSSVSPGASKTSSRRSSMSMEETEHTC

[4] = target: T3, Heat shock factor protein 1 (Mus musculus, UniProt P38532); assay: inhibition of MG132-induced HSE-luciferase signal, confirmation, cell-based, NIH3T3, luminescence, dose retest (AID 2382); type: functional;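 further: NIH3T3 fibroblasts with HSF1-driven luciferase reporter stressed by proteasome inhibitor MG132; luminescence from HSF1-driven luciferase expression after 8 hours of MG132 stress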
T3 sequence (P38532 whole entry): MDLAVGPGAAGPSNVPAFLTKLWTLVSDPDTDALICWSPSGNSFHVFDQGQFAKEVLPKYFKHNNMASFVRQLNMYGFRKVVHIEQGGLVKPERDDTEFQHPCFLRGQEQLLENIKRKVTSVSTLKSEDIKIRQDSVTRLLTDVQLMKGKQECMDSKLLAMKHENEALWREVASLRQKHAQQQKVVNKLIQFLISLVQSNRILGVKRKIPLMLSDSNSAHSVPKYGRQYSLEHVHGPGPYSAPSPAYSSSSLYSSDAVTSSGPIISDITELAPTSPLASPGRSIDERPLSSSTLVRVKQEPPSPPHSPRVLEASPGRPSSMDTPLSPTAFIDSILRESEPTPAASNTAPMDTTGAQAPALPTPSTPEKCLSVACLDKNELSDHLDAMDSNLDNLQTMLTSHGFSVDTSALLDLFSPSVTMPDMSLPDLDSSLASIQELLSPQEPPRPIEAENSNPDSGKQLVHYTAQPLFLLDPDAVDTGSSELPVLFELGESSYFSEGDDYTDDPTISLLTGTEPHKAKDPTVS

Wee1-like protein kinase = Wee1-like protein kinase (Homo sapiens, UniProt P30291); assay: G2/M cell cycle arrest in HeLa, late-stage follow-up, mechanism study for Wee1 degradation inhibitor project, FACS, panel member Wee1 Degradation (AID 2088)
[5] = target: G2/mitotic-specific cyclin-B1 (Homo sapiens, UniProt P14635); assay: G2/M cell cycle arrest in HeLa, late-stage follow-up, mechanism study for Wee1 degradation inhibitor project, FACS, panel member Cyclin B Degradation (AID 2088)
Sequence of G2/mitotic-specific cyclin-B1 (P14635 whole entry): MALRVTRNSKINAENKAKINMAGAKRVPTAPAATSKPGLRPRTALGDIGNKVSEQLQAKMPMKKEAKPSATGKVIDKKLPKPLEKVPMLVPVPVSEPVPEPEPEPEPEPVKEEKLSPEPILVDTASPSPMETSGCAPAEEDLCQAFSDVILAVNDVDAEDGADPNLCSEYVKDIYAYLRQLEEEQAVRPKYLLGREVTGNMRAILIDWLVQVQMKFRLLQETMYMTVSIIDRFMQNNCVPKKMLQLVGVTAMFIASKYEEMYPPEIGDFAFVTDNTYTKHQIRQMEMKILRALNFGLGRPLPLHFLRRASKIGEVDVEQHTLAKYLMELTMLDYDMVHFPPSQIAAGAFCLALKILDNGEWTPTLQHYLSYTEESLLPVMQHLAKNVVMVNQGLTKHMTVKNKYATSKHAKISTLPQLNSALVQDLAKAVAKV

[6] = test system: Streptococcus sp. 'group A'; assay: growth inhibition of control SK(-) GAS strain, dose response, counter-screen for streptokinase expression inhibitor project, luminescence, kanamycin, BacTiterGlo, confirmation (AID 1900); type: functional, organism-based
[7] = cytotoxicity in HPDE-C7 cells, cell-based, fluorescence, HTS (AID 430); type: functional; details: Homo sapiens
Streptococcus = assay: Group A Streptococcus viability loss, dose response, counter-screen for streptokinase expression inhibitor project, luminescence, BacTiterGlo (AID 1915); type: functional, organism-based;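 further: potency for reduction of bacterial viability or growth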
[8] = cytotoxicity in KRAS-transformed pancreatic duct cells, primary screen, cell-based, fluorescence, HTS (AID 431); type: functional; details: Homo sapiens;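 further: cell line used: HPDE-C7K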
X-box-binding protein 1 = X-box-binding protein 1 (Homo sapiens, UniProt P17861); type: functional, Cricetulus griseus;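 further: confirmatory dose-response counter-screen serving a CHOP assay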
Sequence of X-box-binding protein 1 (P17861 whole entry): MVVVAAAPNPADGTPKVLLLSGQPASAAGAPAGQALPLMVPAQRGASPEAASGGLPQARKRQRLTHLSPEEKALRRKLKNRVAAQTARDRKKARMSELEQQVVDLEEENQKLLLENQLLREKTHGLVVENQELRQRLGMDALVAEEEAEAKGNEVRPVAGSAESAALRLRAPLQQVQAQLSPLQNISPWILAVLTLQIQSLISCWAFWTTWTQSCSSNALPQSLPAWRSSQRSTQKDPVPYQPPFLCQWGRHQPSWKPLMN

[9] = PhoP regulon inhibitors in S. Typhimurium, SAR follow-up, synthesized compounds, round 3, GFP (AID 434996); type: functional
[10] = target: Luciferin 4-monooxygenase (Photinus pyralis, UniProt P08659); assay: In vitro luciferase assay using purified luciferase. [Related pubchem assays: 1299, 1270, 1295, 1375, 1287, 1281, 1293, 1291, 1289, 1280, 465, 1364, 1282, 1372, 1365, 1370, 1367, 1366, 1266, 1373, 1292, 1290, 1302, 1371, 1283, 1271, 1294, 1374, 1368, 1369 ]
Sequence of Luciferin 4-monooxygenase (P08659 whole entry): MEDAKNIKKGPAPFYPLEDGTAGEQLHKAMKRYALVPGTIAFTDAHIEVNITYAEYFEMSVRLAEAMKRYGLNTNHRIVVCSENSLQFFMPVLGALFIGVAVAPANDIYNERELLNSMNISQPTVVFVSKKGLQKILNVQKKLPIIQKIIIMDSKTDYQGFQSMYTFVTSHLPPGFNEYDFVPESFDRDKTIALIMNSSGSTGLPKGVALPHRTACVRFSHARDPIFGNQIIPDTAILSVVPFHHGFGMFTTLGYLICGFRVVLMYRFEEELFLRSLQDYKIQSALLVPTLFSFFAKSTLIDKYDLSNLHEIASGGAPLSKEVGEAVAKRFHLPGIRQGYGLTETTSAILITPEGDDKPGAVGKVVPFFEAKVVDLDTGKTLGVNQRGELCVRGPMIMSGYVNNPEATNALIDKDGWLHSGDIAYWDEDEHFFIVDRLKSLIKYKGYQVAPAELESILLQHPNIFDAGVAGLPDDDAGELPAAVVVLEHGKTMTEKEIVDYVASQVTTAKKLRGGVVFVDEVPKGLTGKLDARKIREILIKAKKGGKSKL

HEK293 [11] = assay: PMA/Ionomycin induced NF-kB luciferase assay in 293- NF-kB-Luc stable cells. [Related pubchem assays: 1299, 1270, 1295, 1375, 1287, 1281, 1293, 1291, 1289, 1280, 465, 1364, 1282, 1372, 1365, 1370, 1367, 1366, 1269, 1373, 1292, 1290, 1302, 1371, 1283, 1271, 1294, 1374, 1368, 1369 ]; type: functional, cell-based; details: Homo sapiens
HEK293 [12] = assay: Cytotoxicity assay in HEK293 cells. [Related pubchem assays (depositor defined):AID1266, AID1269, AID1270, AID1271, AID1280, AID1281, AID1282, AID1283, AID1287, AID1289, AID1290, AID1291, AID1292, AID1293, AID1294, AID1295, AID1299, AID1302, AID1364, AID1365, AID1366, AID1367, AID1369, AID1370, AID1371, AID1372, AID1373, AID1374, AID1375, AID1384 …; type: functional, cell-based; details: Homo sapiens
[13] = target: Voltage-dependent T-type calcium channel subunit alpha-1H (Homo sapiens, UniProt O95180); type: functional;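 further: channel activity triggered by adding a high calcium stimulation buffer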
Sequence of Voltage-dependent T-type calcium channel subunit alpha-1H (O95180 whole entry): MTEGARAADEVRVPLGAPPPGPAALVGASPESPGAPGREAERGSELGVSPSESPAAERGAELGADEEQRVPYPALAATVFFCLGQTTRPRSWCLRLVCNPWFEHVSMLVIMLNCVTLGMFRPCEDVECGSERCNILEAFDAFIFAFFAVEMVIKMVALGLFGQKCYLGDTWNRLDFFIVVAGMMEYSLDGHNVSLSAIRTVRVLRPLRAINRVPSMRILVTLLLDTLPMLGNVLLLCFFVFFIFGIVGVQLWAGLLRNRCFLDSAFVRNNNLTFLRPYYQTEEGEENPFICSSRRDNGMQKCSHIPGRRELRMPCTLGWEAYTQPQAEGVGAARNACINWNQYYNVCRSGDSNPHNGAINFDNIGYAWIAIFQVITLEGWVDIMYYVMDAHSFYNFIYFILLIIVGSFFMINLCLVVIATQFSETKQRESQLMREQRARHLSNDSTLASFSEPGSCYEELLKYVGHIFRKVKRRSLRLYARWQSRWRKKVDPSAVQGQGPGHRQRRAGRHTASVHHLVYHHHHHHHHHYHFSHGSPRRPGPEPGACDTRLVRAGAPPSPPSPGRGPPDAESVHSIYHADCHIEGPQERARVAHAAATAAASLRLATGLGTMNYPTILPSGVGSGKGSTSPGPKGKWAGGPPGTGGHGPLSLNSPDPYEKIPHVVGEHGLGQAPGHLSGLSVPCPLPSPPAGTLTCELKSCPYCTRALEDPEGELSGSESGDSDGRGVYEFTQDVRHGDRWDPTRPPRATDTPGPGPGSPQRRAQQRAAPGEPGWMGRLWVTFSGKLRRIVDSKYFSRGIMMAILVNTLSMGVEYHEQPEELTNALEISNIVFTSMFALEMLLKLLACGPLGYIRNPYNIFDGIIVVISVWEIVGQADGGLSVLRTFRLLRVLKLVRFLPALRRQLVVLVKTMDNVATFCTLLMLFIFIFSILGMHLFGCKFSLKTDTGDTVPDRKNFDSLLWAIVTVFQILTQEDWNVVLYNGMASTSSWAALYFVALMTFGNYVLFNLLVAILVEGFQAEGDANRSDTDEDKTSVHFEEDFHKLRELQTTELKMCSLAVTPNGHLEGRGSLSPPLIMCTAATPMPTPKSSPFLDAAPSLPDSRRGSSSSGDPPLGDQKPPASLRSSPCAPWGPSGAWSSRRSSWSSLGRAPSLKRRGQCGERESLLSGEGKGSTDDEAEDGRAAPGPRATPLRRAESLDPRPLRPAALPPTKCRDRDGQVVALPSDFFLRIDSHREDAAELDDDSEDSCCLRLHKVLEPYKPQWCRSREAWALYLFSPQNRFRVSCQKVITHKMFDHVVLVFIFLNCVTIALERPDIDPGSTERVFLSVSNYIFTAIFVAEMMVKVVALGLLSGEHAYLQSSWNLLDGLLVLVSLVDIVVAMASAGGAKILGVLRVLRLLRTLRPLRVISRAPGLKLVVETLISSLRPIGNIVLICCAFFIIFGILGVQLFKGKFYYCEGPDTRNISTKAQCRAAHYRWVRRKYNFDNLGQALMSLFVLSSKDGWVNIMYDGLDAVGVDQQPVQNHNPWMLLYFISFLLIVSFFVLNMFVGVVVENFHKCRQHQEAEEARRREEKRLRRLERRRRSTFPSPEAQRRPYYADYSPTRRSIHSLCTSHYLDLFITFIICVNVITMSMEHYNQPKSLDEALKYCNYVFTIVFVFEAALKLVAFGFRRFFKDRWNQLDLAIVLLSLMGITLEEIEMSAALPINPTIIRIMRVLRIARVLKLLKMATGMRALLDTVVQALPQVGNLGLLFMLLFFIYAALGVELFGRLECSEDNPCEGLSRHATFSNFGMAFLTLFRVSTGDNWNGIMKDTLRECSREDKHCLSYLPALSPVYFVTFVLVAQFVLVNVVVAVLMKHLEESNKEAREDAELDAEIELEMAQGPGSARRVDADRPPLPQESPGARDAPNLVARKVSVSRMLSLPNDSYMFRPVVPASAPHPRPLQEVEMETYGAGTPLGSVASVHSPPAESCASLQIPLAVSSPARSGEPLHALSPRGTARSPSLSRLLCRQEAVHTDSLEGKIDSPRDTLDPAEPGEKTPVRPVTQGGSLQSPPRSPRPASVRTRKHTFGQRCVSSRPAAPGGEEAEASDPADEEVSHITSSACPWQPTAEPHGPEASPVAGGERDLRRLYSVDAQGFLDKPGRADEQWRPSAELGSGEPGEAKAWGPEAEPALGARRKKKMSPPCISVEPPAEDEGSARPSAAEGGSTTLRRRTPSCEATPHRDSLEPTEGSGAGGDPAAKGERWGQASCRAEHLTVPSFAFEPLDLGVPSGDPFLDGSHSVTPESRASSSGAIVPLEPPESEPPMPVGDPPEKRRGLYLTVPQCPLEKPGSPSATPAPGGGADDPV

Sequence of Metabotropic glutamate receptor 4 (Rattus norvegicus, UniProt P31423) (P31423 whole entry): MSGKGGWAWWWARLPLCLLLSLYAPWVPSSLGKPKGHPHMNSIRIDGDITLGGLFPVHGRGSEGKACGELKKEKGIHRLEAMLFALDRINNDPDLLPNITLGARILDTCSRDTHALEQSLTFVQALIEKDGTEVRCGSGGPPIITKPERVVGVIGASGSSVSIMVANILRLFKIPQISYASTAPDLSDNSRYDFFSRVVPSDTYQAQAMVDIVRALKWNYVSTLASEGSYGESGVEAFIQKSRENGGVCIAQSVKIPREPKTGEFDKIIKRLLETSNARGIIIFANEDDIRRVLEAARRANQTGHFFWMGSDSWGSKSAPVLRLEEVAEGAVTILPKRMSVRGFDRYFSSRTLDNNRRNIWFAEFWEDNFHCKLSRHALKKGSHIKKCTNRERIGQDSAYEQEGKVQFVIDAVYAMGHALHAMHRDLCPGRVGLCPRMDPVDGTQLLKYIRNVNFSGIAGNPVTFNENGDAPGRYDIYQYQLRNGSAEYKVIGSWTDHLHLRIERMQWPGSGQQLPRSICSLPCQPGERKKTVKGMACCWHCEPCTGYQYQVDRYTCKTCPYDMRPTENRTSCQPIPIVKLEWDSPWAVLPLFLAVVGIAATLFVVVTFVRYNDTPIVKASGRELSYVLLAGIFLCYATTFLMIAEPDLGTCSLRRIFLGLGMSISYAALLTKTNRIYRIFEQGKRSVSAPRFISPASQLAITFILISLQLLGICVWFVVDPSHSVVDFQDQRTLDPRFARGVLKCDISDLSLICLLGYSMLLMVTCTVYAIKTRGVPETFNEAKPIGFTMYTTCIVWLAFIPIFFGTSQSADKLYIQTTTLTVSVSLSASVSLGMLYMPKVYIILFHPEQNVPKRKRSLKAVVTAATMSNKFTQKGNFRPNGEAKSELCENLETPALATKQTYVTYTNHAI

EC50 [1]: 9.23 µM (active)
EC50 [2]: 12.7 µM (active)
Structure (SMILES): O=C(Nc1ccc(Cl)c(Cl)c1)c1ccsc1

EC50 (Caspase-3): > 85.3 µM (inactive)
EC50 (Caspase-7): > 85.3 µM (inactive)
AC50 [3]: 46 µM (active)
EC50 [4]: > 195 µM (not active)
Structure (SMILES): O=C(Nc1ccc2c(c1)OCCO2)c1coc2ccccc2c1=O

EC50 (Wee1-like protein kinase): > 49.7 µM (inactive)
EC50 [5]: > 49.7 µM (inactive)
Structure (SMILES): CCc1cccc(NC(=O)CCCOc2cc(=O)n(C)c3ccccc23)c1

Structure (SMILES): O=C1c2n[nH]c(-c3ccccc3O)c2C(c2cccc(Cl)c2)N1Cc1ccco1 (stereo not drawn)
EC50 [6]: 6.78 µM (active)
EC50 [7]: 7.07 µM (active)
EC50 (Streptococcus): > 150 µM (inconclusive)
EC50 [8]: 9.83 µM (active)
Absolute IC50 (XBP1) (X-box-binding protein 1): 10 µM

IC50 [9]: > 150 µM (active)
Structure (SMILES): COc1ccccc1CNC(=S)Nc1ccncc1

Structure (SMILES): Cc1csc(NC(=O)c2sc3nc(-c4cccs4)ccc3c2N)n1
EC50 [10]: > 8 µM (not active)
EC50 (HEK293 [11]): 15.8 µM (not active)
EC50 (HEK293 [12]): > 8 µM (inactive)
EC50 [13]: 6.54 µM (active)
